Measured values published in BindingDB's records for doi:10.1021/jm060521i (Karo Bio, 2006).

Molecular target: T1, Thyroid hormone receptor alpha (Homo sapiens, UniProt P10827)
T1 sequence (P10827 whole entry): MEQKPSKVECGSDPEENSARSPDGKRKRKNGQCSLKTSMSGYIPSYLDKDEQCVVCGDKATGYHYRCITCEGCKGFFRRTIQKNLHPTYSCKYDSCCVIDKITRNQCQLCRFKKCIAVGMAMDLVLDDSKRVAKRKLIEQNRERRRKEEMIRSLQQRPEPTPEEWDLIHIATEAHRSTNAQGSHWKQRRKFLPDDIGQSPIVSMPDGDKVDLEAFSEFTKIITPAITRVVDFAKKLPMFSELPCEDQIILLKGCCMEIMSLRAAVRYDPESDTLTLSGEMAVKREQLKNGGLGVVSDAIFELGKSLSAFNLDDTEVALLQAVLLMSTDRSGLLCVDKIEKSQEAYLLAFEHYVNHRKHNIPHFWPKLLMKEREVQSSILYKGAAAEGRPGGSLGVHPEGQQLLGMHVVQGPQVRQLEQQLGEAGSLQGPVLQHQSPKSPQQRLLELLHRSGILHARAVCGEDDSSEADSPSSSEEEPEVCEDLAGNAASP
Experiment: TRalpha-Binding Assay and Thyroid Response Element (TRAFalpha1) Reporter Assay.
Settings: pH 7; 4 °C
From the text: EC50 is the concentration of compound required to inhibit 50% of T3-induced TRalpha-activation in CHOK1 cells stably transfected with hTRalpha using alkaline phosphatase reporter assay.

CC(C)c1cc(Oc2c(Br)cc(CCC(=O)O)cc2Br)cc(/C=C/c2ccncc2)c1O [3-{3,5-dibromo-4-[4-hydroxy-3-(propan-2-yl)-5-[(E)-2-(pyridin-4-yl)ethenyl]phenoxy]phenyl}propanoic acid]
EC50: 32 nM
